According to patent publication US6586407B1, “Injectable pharmaceutical formulations for partricin derivatives” (Quatex N.V., priority 1998, dated 2003):

Tested on: mice
Assay: Single dose i.v. toxicity (LD50) in mice
Format: in vivo
Experimental: In single dose testing in mice, the i.v. 50% lethal dose (LD50) of the SPA-S-843 formulation, obtained according to Example 15, is increased from 70 mg/kg to >200 mg/kg

SMILES: CNc1ccc(C(=O)CC(O)CC[C@H](C)C2OC(=O)C[C@H](O)CC(=O)C[C@H](O)C[C@H](O)C[C@H](O)C[C@H](O)C[C@]3(O)C[C@H](O)[C@@H](C(=O)NCCN(C)C)[C@H](C[C@@H](O[C@@H]4O[C@H](C)[C@@H](O)[C@H](NC(=O)CN(C)C)[C@@H]4O)/C=C/C=C/C=C/C=C/C=C/C=C/C=C/C2C)O3)cc1.N[C@@H](CC(=O)O)C(=O)O.N[C@@H](CC(=O)O)C(=O)O (stereo partly shown) [SPA-S-843, N-dimethylaminoacetyl-partricin A 2-dimethylamino-ethylamide diascorbate]
- i.v. 50% lethal dose (LD50): 70 mg/kg
